Marks after values point to notes of the source that are not given here.
Tests used:
[1] = Plasma pharmacokinetics, T2DM subjects; assay type: in vivo, human; conditions: for AUC(0-inf) / Cmax / Tmax / half-life: human, plasma analyte; for AUC(0-inf): read-out: AUC(0–∞) Geometric mean (CV%); for Cmax: read-out: Cmax Geometric mean (CV%); for Tmax: read-out: Tmax Median; for half-life: read-out: T½ Geometric mean (CV%) (converted)
Method: Six subjects with T2DM received two doses of remogliflozin etabonate and a placebo dose, in a randomized, dose escalating, crossover design, along with an oral glucose load on three study sessions separated by 7–14 days. Full PK and safety profiles were measured on Day 1 of each dosing period. The doses selected for this portion of the study, 50 mg and 500 mg, were based on data obtained in Part A. In each dosing period, subjects were assigned to active vs placebo in a 2:1 ratio. On each dosing day, a series of 2.0 mL blood samples were collected at pre-dose and 10, 20, 30 and 45 min, and 1, 1.25, 1.5, 2, 2.5, 3, 4, 6, 8, 12, 16, and 24 h post-dose for the determination of remogliflozin etabonate, remogliflozin and GSK279782 in plasma by using high-performance liquid chromatography with tandem mass spectrometry (MS/MS) as described. Non-compartmental PK analysis of plasma concentration–time data was performed using WinNonlin Version 4.1 (Pharsight Corporation, Mountainview, CA, USA). The Cmax and Tmax were obtained directly from the data. Areas under the plasma concentration–time curves from time zero to the last quantifiable time point (AUC[0–last]) and extrapolated to infinity (AUC[0–∞]) were calculated using the log-linear trapezoidal method. The terminal plasma elimination rate-constant (λz) was estimated from log-linear regression analysis of the terminal phase of the plasma concentration–time curve, and the T½ was calculated as T½ = ln2/λz. Ratios of AUC(0–∞) remogliflozin to AUC(0–last) remogliflozin etabonate were calculated including molecular weight corrections.

[2] = Plasma pharmacokinetics, healthy subjects; assay type: in vivo, human; conditions: for Tmax / half-life / AUC(0-inf) / Cmax: human; for AUC(0-inf): read-out: AUC(0-∞) Geometric mean (CV%); for Cmax: read-out: Cmax Geometric mean (CV%); for AUC ratio (remogliflozin/remogliflozin etabonate) Geometric mean: molecular weight corrected
Method: Ten healthy subjects were evaluated in 5 study sessions, each separated by approximately 2 weeks. At each study session, subjects received either an oral dose of remogliflozin etabonate or placebo after an overnight fast. Remogliflozin etabonate doses were 20 mg, 50 mg, 150 mg, 500 mg and 1000 mg. Over the course of participation in the study, each subject received 4 of the 5 active remogliflozin etabonate doses and 1 dose of placebo (4:1 active to placebo ratio per treatment period). The available safety and PK results from each dosing period were evaluated before proceeding to the next dose level. On each dosing day, a series of 2.0 mL blood samples were collected at pre-dose and 10, 20, 30 and 45 min, and 1, 1.25, 1.5, 2, 2.5, 3, 4, 6, 8, 12, 16, and 24 h post-dose for the determination of remogliflozin etabonate, remogliflozin and GSK279782 in plasma by using high-performance liquid chromatography with tandem mass spectrometry (MS/MS) as described. Non-compartmental PK analysis of plasma concentration–time data was performed using WinNonlin Version 4.1 (Pharsight Corporation, Mountainview, CA, USA). The Cmax and Tmax were obtained directly from the data. Areas under the plasma concentration–time curves from time zero to the last quantifiable time point (AUC[0–last]) and extrapolated to infinity (AUC[0–∞]) were calculated using the log-linear trapezoidal method. The terminal plasma elimination rate-constant (λz) was estimated from log-linear regression analysis of the terminal phase of the plasma concentration–time curve, and the T½ was calculated as T½ = ln2/λz. Ratios of AUC(0–∞) remogliflozin to AUC(0–last) remogliflozin etabonate were calculated including molecular weight corrections. Safety and pharmacodynamic data were summarized using descriptive statistics. This was a small exploratory study and no formal hypothesis-testing was conducted. Dose proportionality with respect to Cmax, and AUC was assessed using the power model y = α dose^β, where y = Cmax or AUC, and α denotes a random subject effect. The exponent β in the power model will be estimated by regressing the loge-transformed PK parameters on loge dose, i.e. ln(PK parameter) = ln(α) + β * ln(dose). Dose proportionality implied that β = 1 and was assessed by estimating β and its corresponding 90% confidence interval. The power model was fitted by restricted maximum likelihood using SAS Proc Mixed.

SGLT-2 = test system: SGLT-2; set-up: method as in PMID 22851617; conditions: relative to remogliflozin; cited from earlier work
SGLT2 over SGLT1 = test system: SGLT2 over SGLT1; set-up: method as in PMID 12139397; conditions: cited from earlier work
[3] = remogliflozin etabonate 50 mg oral dose
[4] = remogliflozin etabonate 500 mg oral dose (prodrug n = 2)
[5] = remogliflozin etabonate 500 mg oral dose
[6] = plasma, po, 20 mg, plasma analyte, healthy subjects, remogliflozin etabonate 20 mg oral dose, read-out: T½ Geometric mean (CV%) (converted)
[7] = plasma, po, 50 mg, plasma analyte, healthy subjects, remogliflozin etabonate 50 mg oral dose, read-out: T½ Geometric mean (CV%) (converted)
[8] = plasma, po, 150 mg, plasma analyte, healthy subjects, remogliflozin etabonate 150 mg oral dose, read-out: T½ Geometric mean (CV%) (converted)
[9] = plasma, po, 500 mg, plasma analyte, healthy subjects, remogliflozin etabonate 500 mg oral dose, read-out: T½ Geometric mean (CV%) (converted)
[10] = plasma, po, 1000 mg, plasma analyte, healthy subjects, remogliflozin etabonate 1000 mg oral dose, read-out: T½ Geometric mean (CV%) (converted)
[11] = plasma analyte, healthy subjects, remogliflozin etabonate 20 mg oral dose
[12] = plasma analyte, healthy subjects, remogliflozin etabonate 20 mg oral dose, read-out: Tmax Median
[13] = plasma analyte, healthy subjects, remogliflozin etabonate 50 mg oral dose
[14] = plasma analyte, healthy subjects, remogliflozin etabonate 50 mg oral dose, read-out: Tmax Median
[15] = plasma analyte, healthy subjects, remogliflozin etabonate 150 mg oral dose
[16] = plasma analyte, healthy subjects, remogliflozin etabonate 150 mg oral dose, read-out: Tmax Median
[17] = plasma analyte, healthy subjects, remogliflozin etabonate 500 mg oral dose
[18] = plasma analyte, healthy subjects, remogliflozin etabonate 500 mg oral dose, read-out: Tmax Median
[19] = plasma analyte, healthy subjects, remogliflozin etabonate 1000 mg oral dose
[20] = plasma analyte, healthy subjects, remogliflozin etabonate 1000 mg oral dose, read-out: Tmax Median

| AUC(0-inf) [1, 3] | Cmax [1, 3] | Tmax [1, 3] | half-life [1, 3] | AUC(0-inf) [1, 4] | half-life [1, 4] | Cmax [1, 5] | Tmax [1, 5] | half-life [2, 6] | half-life [2, 7] | half-life [2, 8] | half-life [2, 9] | half-life [2, 10] | AUC(0-inf) [2, 11] | Cmax [2, 11] | Tmax [2, 12] | AUC(0-inf) [2, 13] | Cmax [2, 13] | Tmax [2, 14] | AUC(0-inf) [2, 15] | SMILES | also measured |
| --- | --- | --- | --- | --- | --- | --- | --- | --- | --- | --- | --- | --- | --- | --- | --- | --- | --- | --- | --- | --- | --- |
| 130 ng·h/mL | 34.6 ng/mL | 1.74 h | 2.05 h | 1290 ng·h/mL | 3.28 h | 314 ng/mL | 2.75 h | 1.54 h | 2.19 h | 2.28 h | 3.07 h | 3.5 h | 51.8 ng·h/mL | 17.5 ng/mL | 1.26 h | 145 ng·h/mL | 50.2 ng/mL | 1.38 h | 447 ng·h/mL | Cc1[nH]nc(O[C@@H]2O[C@H](CO)[C@@H](O)[C@H](O)[C@H]2O)c1Cc1ccc(OC(C)C)cc1 [GSK279782] | Tmax ([2]; plasma, oral, healthy subjects, 20-1000 mg, read-out: median Tmax estimates, range across doses): 1 to 1.5 h; half-life ([2]; plasma, oral, healthy subjects, 20-1000 mg, read-out: median T½ estimates, range across doses): 1.54 to 3.5 h; Cmax [2, 15]: 155 ng/mL; Tmax [2, 16]: 1 h; AUC(0-inf) [2, 17]: 1520 ng·h/mL; Cmax [2, 17]: 498 ng/mL; Tmax [2, 18]: 1.5 h; AUC(0-inf) [2, 19]: 4000 ng·h/mL; Cmax [2, 19]: 1290 ng/mL; Tmax [2, 20]: 1.25 h; Potency in inhibiting SGLT-2 in vitro (SGLT-2): as potent as remogliflozin |
| 523 ng·h/mL | 195 ng/mL | 1.46 h | 1.59 h | 5180 ng·h/mL | 3.93 h | 1890 ng/mL | 2.5 h | 1.38 h | 1.47 h | 1.59 h | 2.57 h | 2.86 h | 133 ng·h/mL | 61 ng/mL | 0.89 h | 324 ng·h/mL | 158 ng/mL | 1.14 h | 991 ng·h/mL | Cc1c(Cc2ccc(OC(C)C)cc2)c(O[C@@H]2O[C@H](CO)[C@@H](O)[C@H](O)[C@H]2O)nn1C(C)C [Remogliflozin, remogliflozin] | AUC(0–∞) ratio (Remogliflozin/remogliflozin etabonate) Geometric mean (CV%) ([1]; 50 mg oral dose): 59 (62); AUC(0–∞) ratio (Remogliflozin/remogliflozin etabonate) Geometric mean (CV%) ([1]; 500 mg oral dose): 54 (38); AUC ratio (remogliflozin/remogliflozin etabonate) Geometric mean ([2]; healthy subjects, 20 mg oral dose, n = 5): 84^d; AUC ratio (remogliflozin/remogliflozin etabonate) Geometric mean ([2]; healthy subjects, 50 mg oral dose): 81; AUC ratio (remogliflozin/remogliflozin etabonate) Geometric mean ([2]; healthy subjects, 150 mg oral dose): 102; AUC ratio (remogliflozin/remogliflozin etabonate) Geometric mean ([2]; healthy subjects, 500 mg oral dose): 105; AUC ratio (remogliflozin/remogliflozin etabonate) Geometric mean ([2]; healthy subjects, 1000 mg oral dose): 95; Time to appearance in plasma at relatively high concentrations ([2]; healthy subjects, after remogliflozin etabonate dosing): ≤ 10 min; half-life ([2]; plasma, oral, both populations, independent of dose (abstract), read-out: mean plasma T½): 2 h; half-life ([2]; plasma, oral, healthy subjects, 20-1000 mg, read-out: mean T½ estimates, range across doses): 1.38 to 2.86 h; Tmax ([2]; plasma, both populations, after oral RE (abstract), read-out: time to maximum plasma concentration (Tmax)): ~1 h; Cmax [2, 15]: 515 ng/mL; Tmax [2, 16]: 0.66 h; AUC(0-inf) [2, 17]: 3720 ng·h/mL; Cmax [2, 17]: 1700 ng/mL; Tmax [2, 18]: 1.5 h; AUC(0-inf) [2, 19]: 10300 ng·h/mL; Cmax [2, 19]: 4820 ng/mL; Tmax [2, 20]: 1.25 h; Selectivity for SGLT2 over SGLT1 (SGLT2 over SGLT1): high level of selectivity |

From paper PMC3700763, “First human dose-escalation study with remogliflozin etabonate, a selective inhibitor of the sodium-glucose transporter 2 (SGLT2), in healthy subjects and in subjects with type 2 diabetes mellitus” (BMC Pharmacology & Toxicology, 2013)
